# The source made the active and inactive calls. How the calls were made is not given here.
# Molecular target: Mu-type opioid receptor (Homo sapiens) (UniProt P35372)
# Assay: mu-delta opioid heterodimer formation enhancers – cell-based, luminescence, dose response, set 2, late-stage follow-up (AID 651762)
# Conditions: luminescence complementation
# Mu-type opioid receptor (Homo sapiens), sequence (P35372 whole entry, looked up): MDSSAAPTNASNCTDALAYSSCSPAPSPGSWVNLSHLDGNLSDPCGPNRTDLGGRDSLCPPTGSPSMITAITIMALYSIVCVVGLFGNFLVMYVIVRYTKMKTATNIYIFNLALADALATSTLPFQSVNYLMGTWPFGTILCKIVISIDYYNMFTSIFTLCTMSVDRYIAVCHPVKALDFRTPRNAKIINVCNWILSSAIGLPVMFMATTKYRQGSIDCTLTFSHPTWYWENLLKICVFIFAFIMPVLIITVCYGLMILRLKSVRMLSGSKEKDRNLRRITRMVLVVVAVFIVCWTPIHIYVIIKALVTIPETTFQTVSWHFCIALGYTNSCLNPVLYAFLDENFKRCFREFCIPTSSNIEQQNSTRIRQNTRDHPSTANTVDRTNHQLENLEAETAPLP
row,EC50,SMILES
1,> 50 µM (inactive),CCOC(=O)C1(CCc2ccccc2)CCN(C(=O)Nc2ccc(C)cc2C)CC1
2,> 50 µM (inactive),C=Cc1ccc(C(=O)N2CCC(CCc3ccccc3)(C(=O)OCC)CC2)cc1
3,> 50 µM (inactive),O=C(O)C1CCCCC1C(=O)Nc1ccc(CN2CCCCC2)cc1 (stereo not drawn)
4,> 50 µM (inactive),CCOC(=O)C1(CCOc2ccccc2)CCCN(Cc2ccc(NC(C)=O)cc2)C1 (stereo not drawn)
5,0.394 µM,CCOC(=O)C1(Cc2ccccc2Cl)CCN(Cc2ccc(NC(C)=O)cc2)CC1
6,> 50 µM (inactive),CCOC(=O)C1(CC2CC2)CCN(C(=O)c2ccc(N3CCCCC3)cc2)CC1
7,> 50 µM (inactive),C=Cc1ccc(C(=O)N2CCC(CCCc3ccccc3)(C(=O)OCC)CC2)cc1
8,> 50 µM (inactive),CCOC(=O)C1(CCOC)CCN(Cc2ccc(N(C)c3ccccc3)cc2)CC1
9,> 50 µM (inactive),CCOC(=O)C1(CCc2ccccc2)CCCN(Cc2ccc(N3CCNC3=O)cc2)C1 (stereo not drawn)
10,> 50 µM (inactive),CCOC(=O)C1CCCCN1Cc1ccc(NC(C)=O)cc1 (stereo not drawn)
11,> 50 µM (inactive),CCOC(=O)C1(CCc2ccccc2)CCN(Cc2ccc(C#CC(C)(C)O)cc2)CC1
12,> 50 µM (inactive),CCOC(=O)C1(CCOC)CCN(Cc2ccc(NC(C)=O)cc2)CC1
13,> 50 µM (inactive),CCOC(=O)C1(Cc2ccccc2)CCCN(Cc2ccc(NC(C)=O)cc2)C1 (stereo not drawn)
14,0.206 µM,CCOC(=O)C1(CCc2ccccc2)CCN(Cc2ccc(OC)cc2)CC1
15,> 50 µM (inactive),CCOC(=O)C1CCN(CCC(=O)Nc2ccc(C)cc2)CC1
16,> 50 µM (inactive),CCOC(=O)C1(Cc2cccc(OC)c2)CCCN(Cc2ccc(NC(C)=O)cc2)C1 (stereo not drawn)
17,> 50 µM (inactive),CCOC(=O)C1(CCc2ccccc2)CCN(Cc2ccc(C(=O)OC)cc2)CC1
18,5.16 µM,CC(=O)Nc1ccc(CN2CCCC(CO)(CCc3ccccc3)C2)cc1 (stereo not drawn)
19,> 50 µM (inactive),CCOC(=O)C1(CCc2ccccc2)CCN(Cc2ccncc2)CC1
20,> 50 µM (inactive),CCOC(=O)C1CCN(C(=O)c2ccc(N(C)C)cc2)CC1
21,> 50 µM (inactive),CCOC(=O)C1(CCc2ccccc2)CCN(Cc2ccc(O)cc2)CC1
22,> 50 µM (inactive),CCOC(=O)C1(Cc2ccccc2C)CCCN(Cc2ccc(NC(C)=O)cc2)C1 (stereo not drawn)
23,> 50 µM (inactive),CCOC(=O)C1CCN(Cc2ccc(N(C)C)cc2)CC1
24,> 50 µM (inactive),CCOC(=O)C1(CC2CC2)CCN(Cc2ccc(NC(C)=O)cc2)CC1
25,> 50 µM (inactive),CCOC(=O)C1CCN(Cc2ccc(NC(C)=O)cc2)CC1
26,> 50 µM (inactive),CCOC(=O)C1(Cc2ccc(OC)cc2)CCN(C(=O)c2ccc(N(C)C)cc2)CC1
27,0.605 µM,CCOC(=O)C1(CCc2ccccc2)CCN(Cc2c(O)cccc2OC)CC1
28,> 50 µM (inactive),CCOC(=O)C1(CCOC)CCCN(Cc2ccc(NC(C)=O)cc2)C1 (stereo not drawn)
